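Protocol summary: plate cells (96-well), add compound at 5 concentrations, incubate 48 h, interpolate endpoints linearly. TGI denotes the concentration required for complete inhibition of growth.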
Columns and labels:
Assay in all cases: inhibition of tumour cell growth, NCI panel, 48 h
SK-OV-3 ovarian = test system: SK-OV-3 ovarian
KM12 colon = test system: KM12 colon
A549 NSCLC = test system: A549 NSCLC
ACHN renal = test system: ACHN renal
MDA-MB-435 = test system: MDA-MB-435
U251 CNS = test system: U251 CNS
BT-549 breast = test system: BT-549 breast
OVCAR-3 ovarian = test system: OVCAR-3 ovarian

Measured: TGI

NCCC1(N)CCNCC1
not listed: OVCAR-3 ovarian
> 100 µM: all other assays above

COc1c2nc(CCl)n(C)c(=O)c2c(OC)c2c(=O)n(C)c(CCl)nc12
2.43 µM: ACHN renal
1.96 µM: BT-549 breast
5.68 µM: OVCAR-3 ovarian
7.65 µM: MDA-MB-435
2.46 µM: KM12 colon
13.3 µM: A549 NSCLC
3.29 µM: U251 CNS

COc1ccc(C[C@@H]2CN(C(=O)c3ccccc3)[C@H](Cc3ccc(O)cc3)CN2C(=O)c2ccccc2)cc1Br
not listed: U251 CNS
> 100 µM: all other assays above

N#Cc1[nH]c(=O)n(-c2ccc([N+](=O)[O-])cc2)c1N
not listed: KM12 colon | BT-549 breast
> 10 µM: all other assays above

Cc1c(C)c(C)c(-n2c(=O)n(C)c(=O)n2C(C)(C)C)c(C)c1C
> 100 µM: all assays above

N/C(CC/C(N)=N\O)=N\O
not listed: SK-OV-3 ovarian
> 100 µM: all other assays above

C[N+]1(C)CC=C(N2CCOCC2)CC1
not listed: BT-549 breast
> 10 µM: all other assays above

COC(=O)OC[C@H]1O[C@@H](n2cc(C)c(=O)[nH]c2=O)CC1OC(=O)OC (some centres undefined)
> 100 µM: all assays above

Oc1ccc(-c2cc(-c3c(O)cc(O)cc3O)on2)cc1
> 100 µM: all assays above

O=S(=O)(O)c1cc(Cl)c(O)c2ncc(Cl)cc12
not listed: SK-OV-3 ovarian
> 100 µM: all other assays above

CCOn1cc(C[C@@]2(O)C(=O)OC3[C@@H](O)CO[C@@]32O)c2ccccc21 (some centres undefined)
> 100 µM: all assays above

Nc1c(Br)cc(-c2cc(Br)c(N)c(Br)c2)cc1Br
not listed: U251 CNS | BT-549 breast
> 100 µM: all other assays above

COC(=O)C(=O)C(C(=O)C(=O)Nc1ccccc1C(=O)OC)c1nc2ccc(C(=O)c3ccccc3)cc2[nH]c1=O (centres undefined)
> 100 µM: all assays above

Source: PubChem BioAssay (NCI)
